Among the data in paper PMC9777073, “A Fenchone Derivative Effectively Abrogates Joint Damage Following Post-Traumatic Osteoarthritis in Lewis Rats” (Cells, 2022) are IC50 values, retold here.

Structures are written as SMILES. pIC50: −log10 of the molar value.

For this assay, the target named is T1, cannabinoid receptor 1 (CB1) (Homo sapiens, UniProt P21554).
T1 construct: gene CNR1
Description: cell-based. The arrangement: species or system CHO-K1. Particulars: read-out: Antagonist IC50 RC50.
Description: For agonist analysis, we monitored “evaluation of potency” (EC50) and % efficacy (Max response), which were reflected by increased intracellular cAMP levels detected in cAMP Hunter™ Gs cell lines (CHO-K1 lines) overexpressing human CNR1 (i.e., gene encoding CB1) or CNR2 (i.e., gene encoding CB2). Alternatively, antagonist activity (i.e., inhibitory concentration or IC50) utilized a cAMP Hunter™ Gi cell lines (CHO-K1 lines), detecting an intracellular reduction in cAMP levels in cells overexpressing CNR1 and CNR2. These cell lines are designed to be used in conjunction with the HitHunter® cAMP Assay Detection Kit. Specifically, for agonist assay, cells were subjected to positive controls, known to activate the increase in cAMP for both receptors (agonist control 20 µM Forskolin for CB1 and 25 µM Forskolin for CB2). […] Prior to testing the cell, plating media were exchanged with 10 uL of Assay buffer (HBSS + 10 mM HEPES). Agonist results are expressed as percent efficacy relative to the maximum response of the control ligand (%Effc or EC50), while antagonist results are expressed as percent inhibition of the control ligand (IC50) normalized to the unantagonized vehicle.

T1 sequence (P21554 whole entry): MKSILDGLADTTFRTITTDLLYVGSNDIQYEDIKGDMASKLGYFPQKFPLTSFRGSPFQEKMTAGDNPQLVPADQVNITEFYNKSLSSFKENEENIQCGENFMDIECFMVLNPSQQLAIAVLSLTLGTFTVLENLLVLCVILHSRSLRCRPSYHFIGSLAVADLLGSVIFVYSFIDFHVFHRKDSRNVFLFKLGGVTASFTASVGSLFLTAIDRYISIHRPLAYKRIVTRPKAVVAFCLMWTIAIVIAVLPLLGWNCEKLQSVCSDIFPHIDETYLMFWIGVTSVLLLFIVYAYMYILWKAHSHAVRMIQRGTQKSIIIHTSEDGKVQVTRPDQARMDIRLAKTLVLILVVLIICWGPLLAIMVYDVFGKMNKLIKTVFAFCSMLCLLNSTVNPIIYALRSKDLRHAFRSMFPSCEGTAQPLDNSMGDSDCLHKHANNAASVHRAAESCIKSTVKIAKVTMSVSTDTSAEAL

With `Cc1c(C(=O)NN2CCOCC2)nn(-c2ccc(Cl)cc2Cl)c1-c1ccc(I)cc1` [AM281], the negative-log IC50 (pIC50) was 7.65.

By pIC50 is commonly meant the negative decadic logarithm of the IC50, by convention in mol/L.
